Measured values published in US9149038B2, “4-amino-6-(heterocyclic)picolinates and 6-amino-2-(heterocyclic)pyrimidine-4-carboxylates and their use as herbicides” (Dow AgroSciences LLC, priority 2013, dated 2015).

Tested on: Key Broadleaf and Grass Weed as well as Crop Species
Test: Pre-Emergent Test I: preemergent herbicidal activity, herbicidal effect rating 14 days after treatment (Table 6)
Format: in vivo
Conditions: for Visual Growth Reduction (%) 14 Days After Application ECHCG: barnyardgrass (Echinochloa crus-galli); for Visual Growth Reduction (%) 14 Days After Application SETFA: giant foxtail (Setaria faberi); for Visual Growth Reduction (%) 14 Days After Application IPOHE: ivyleaf morningglory (Ipomoea hederecea); for Visual Growth Reduction (%) 14 Days After Application HELAN: sunflower (Helianthus annuus); for Visual Growth Reduction (%) 14 Days After Application AVEFA: wild oats (Avena fatua)
Method: Herbicidal evaluations were made visually on a scale of 0 to 100 where 0 represents no activity and 100 represents complete plant death. Pre-Emergent Test I: Seeds of test species were planted into round plastic pots (5-inch diameter) containing sandy loam soil. After planting, all pots were sub-irrigated 16 h prior to compound application. Compounds were dissolved in a 97:3 v/v mixture of acetone and DMSO and diluted to the appropriate concentration in a final application solution containing water, acetone, isopropanol, DMSO and Agri-dex (crop oil concentrate) in a 59:23:15:1.0:1.5 v/v ratio and 0.02% w/v (weight/volume) of Triton X-155 to obtain the spray solution containing the highest application rate. The high application rate was serial diluted with the above application solution to provide delivery of the compound at rates ½×, ¼× and ⅛× of the highest rate (equivalent to 4.0, 2.0, 1.0, and 0.5 kg/ha, respectively). Formulated compound (2.7 mL) was applied pipetted evenly over the soil surface followed by incorporation with water (15 mL). Following treatment, pots were returned to the greenhouse for the duration of the experiment. The greenhouse was programmed for an approximate 15 h photoperiod which was maintained at about 23-29° C. during the day and 22-28° C. during the night. Nutrients and water were added on a regular basis through surface irrigation and supplemental lighting was provided with overhead metal halide 1000-Watt lamps as necessary. Herbicidal effect ratings were obtained 14 days after treatment. All evaluations were made relative to appropriate controls on a scale of 0 to 100 where 0 represents no herbicidal effect and 100 represents plant death or lack of emergence from the soil and are presented as indicated in Table 4.

| SMILES | Visual Growth Reduction (%) 14 Days After Application ECHCG (4 kg ai/ha) | Visual Growth Reduction (%) 14 Days After Application SETFA (4 kg ai/ha) | Visual Growth Reduction (%) 14 Days After Application IPOHE (4 kg ai/ha) | Visual Growth Reduction (%) 14 Days After Application HELAN (4 kg ai/ha) | Visual Growth Reduction (%) 14 Days After Application AVEFA (4 kg ai/ha) | Visual Growth Reduction (%) 14 Days After Application ECHCG (3.96 kg ai/ha) | Visual Growth Reduction (%) 14 Days After Application SETFA (3.96 kg ai/ha) | Visual Growth Reduction (%) 14 Days After Application IPOHE (3.96 kg ai/ha) | Visual Growth Reduction (%) 14 Days After Application HELAN (3.96 kg ai/ha) | Visual Growth Reduction (%) 14 Days After Application AVEFA (3.96 kg ai/ha) |
| --- | --- | --- | --- | --- | --- | --- | --- | --- | --- | --- |
| Nc1c(F)c(-c2cccc3c2OCO3)nc(C(=O)O)c1Cl [Compound 72, 4-Amino-6-(benzo[d][1,3]dioxol-4-yl)-3-chloro-5-fluoropicolinic acid] | C (75-84) | G (0-29) | G (0-29) | A (95-100) | D (60-74) | – | – | – | – | – |
| COC(=O)c1nc(-c2cccc3c2OC(F)(F)O3)c(F)c(N)c1Cl [Compound 73] | – | – | – | – | – | G (0-29) | G (0-29) | C (75-84) | A (95-100) | G (0-29) |
